# Patent US20090269794A1, “SCREENING METHOD FOR COMPOUND INHIBITING DEVELOPMENT OR PROGRESSION OF FAMILIAL AMYOTROPHIC LATERAL SCLEROSIS AND DIAGNOSTIC METHOD FOR FAMILIAL AMYOTROPHIC LATERAL SCLEROSIS” (HISAMITSU PHARMACEUTICAL CO., INC., priority 2005, published 2009)
# How the values were obtained:
# HIF-1α = details: cells exposed to DFO, normal oxygen conditions, Non-patent document 12; cited from earlier work
# NEDL1 mRNA = NEDL1 mRNA expression by semi-quantitative RT-PCR in SK-N-BE (2) C cells; type: cell-based, human; details: 250 μM DFO for 24 hours, FIG. 2
# Experimental: Human neuroblastoma SK-N-BE (2) C cells were cultured in Dulbecco's […] (DMEM) containing 10% heat treated fetal bovine serum (FBS). Hypoxia culturing was carried out in a 2% oxygen concentration, with the cells in a Napco automatic O2/CO2 cell culture apparatus (Waken Co., Ltd.). DFO (Sigma) treatment was carried out by exposing the cells to 250 μM DFO for 24 hours.
# (Reverse Transcription Polymerase Chain Reaction (RT-PCR)) TRIZOL reagent (Invitrogen Corp.) was used according to the manufacturer's manual to prepare total RNA from untreated, hypoxia-treated, DFO-treated cells and the transfected cells. RT-PCR was conducted in the following manner. The prepared total RNA (1 μg/2.5 μL) was incubated at 75° C. for 5 minutes and then allowed to stand on ice for 5 minutes. The prepared RNA was added to a mixture of 0.5 μL RNase inhibitor (40 units/μL, Toyobo, Ltd.), 0.5 μL M-MLV reverse transcriptase (200 units/μL, Invitrogen Corp.), 1 μL 50×dNTPs (2 mM each), 0.5 μL oligo(dT) primer (0.5 mg/mL, Invitrogen Corp.), 2 μL 5×first-strand buffer (Invitrogen Corp.) and 1 μL 0.1 M dithiothreitol, and the mixture was incubated for 10 minutes at room temperature, 45 minutes at 37° C. and 3 minutes at 95° C. to prepare cDNA. The prepared cDNA was used as template with the primers under the following PCR conditions to amplify the NEDL1 and β-actin gene cDNA fragments. […]
compound,measurement,setting,value
"CC(=O)N(O)CCCCCNC(=O)CCC(=O)N(O)CCCCCNC(=O)CCC(=O)N(O)CCCCCN [DFO, desferrioxamine]",HIF-1α detection as protein,HIF-1α,detected
same,NEDL1 mRNA expression,NEDL1 mRNA,increased
